Columns and labels:
rat [1] = details: Sub-acute dermal toxicity, sprague dawley, Topical, dose end: 21 day, group: systemic, systemic / in life observation / clinical signs / desquamation + systemic / in life observation / clinical signs / erythema + systemic / …
mouse [2] = details: Subchronic oral toxicity in rodents, cd1, Feed, dose end: 13 week, group: systemic
rat [3] = details: Subchronic oral toxicity in rodents, other, Feed, dose end: 13 week, group: systemic, systemic / clinical chemistry / urea nitrogen / urea
rat [4] = details: Subchronic oral toxicity in rodents, Feed, dose end: 13 week, group: systemic
rabbit [5] = details: Prenatal developmental toxicity study, new zealand white, Dermal, Topical, dose end: 18 GD
rabbit [6] = details: Prenatal developmental toxicity study, new zealand white, Oral, Capsule, dose end: 18 GD
dog [7] = details: Chronic toxicity; beagle; Oral; Feed; dose end: 52 week; group: systemic; systemic / clinical chemistry / albumin / albumin + systemic / clinical chemistry / calcium / calcium + systemic / clinical chemistry / …
rat [8] = details: Prenatal developmental toxicity study, fischer, Oral, Gavage/Intubation, dose end: 15 GD
rat [9] = details: Subchronic oral toxicity in rodents, sprague dawley, Feed, dose end: 13 week
dog [10] = details: Subchronic oral toxicity in nonrodent, beagle, Capsule, dose end: 90 day
mouse [11] = details: Carcinogenicity, cd1, Oral, Feed, dose end: 102 week, group: systemic
dog [12] = details: Chronic toxicity, beagle, Oral, Capsule, dose end: 12 month
rat [13] = details: Combined chronic toxicity/carcinogenicity, other, Oral, Feed, dose end: 104 week
mouse [14] = details: Carcinogenicity, b6c3f1, Oral, Water, dose end: 104 week, group: systemic
rat [15] = details: Sub-acute repeat dose toxicity; sprague dawley; Oral; Water; dose end: 14 day; group: systemic; systemic / in life observation / body weight / body weight + systemic / in life observation / food consumption / food consumption + systemic…
rat [16] = details: Prenatal developmental toxicity study, long evans, Oral, Gavage/Intubation, dose end: 15 GD
rat [17] = details: Subchronic oral toxicity in rodents, sprague dawley, Water, dose end: 90 day, group: systemic
[18] = systemic / in life observation / body weight / body weight
[19] = systemic / in life observation / body weight / body weight + systemic / organ weight / liver / relative to body weight
[20] = systemic / in life observation / body weight / body weight + systemic / clinical chemistry / urea nitrogen / urea + systemic / urinalysis / …
[21] = group: developmental, developmental / developmental malformation / bone / supernumerary + developmental / developmental malformation / bone / unossified + …
[22] = group: maternal, systemic / in life observation / body weight / body weight gain
[23] = group: developmental, developmental / developmental malformation / bone / supernumerary + developmental / developmental malformation / gallbladder / [other] + …
[24] = group: maternal, reproductive / reproductive performance / aborted / aborted + reproductive / reproductive performance / postimplantation loss / …
[25] = group: maternal, systemic / in life observation / body weight / body weight + systemic / in life observation / body weight / body weight gain + systemic / in…
[26] = group: developmental, developmental / developmental malformation / bone / ossification sites + developmental / developmental malformation / bone / supernumerary
[27] = group: maternal, systemic / in life observation / body weight / body weight
[28] = group: cholinesterase, cholinesterase / cholinesterase / cholinesterase / erythrocyte cholinesterase (che)
[29] = group: systemic, systemic / pathology microscopic / adrenal gland / vacuolization cytoplasmic
[30] = group: cholinesterase, cholinesterase / cholinesterase / cholinesterase / plasma cholinesterase (che)
[31] = group: cholinesterase, cholinesterase / cholinesterase / cholinesterase / plasma cholinesterase (che) + cholinesterase / cholinesterase / cholinesterase / brain …
[32] = group: systemic, systemic / pathology microscopic / adrenal gland / cytoplasmic alteration + systemic / pathology microscopic / adrenal gland / hypertrophy
[33] = systemic / pathology microscopic / adrenal gland / pigmentation
[34] = systemic / pathology microscopic / adrenal gland / pigmentation + systemic / in life observation / body weight / body weight + systemic / in…
[35] = group: systemic, systemic / clinical chemistry / alanine aminotransferase (alt/sgpt) / alanine aminotransferase (alt/sgpt)
[36] = group: systemic, systemic / clinical chemistry / alanine aminotransferase (alt/sgpt) / alanine aminotransferase (alt/sgpt) + systemic / hematology / …
[37] = group: systemic, systemic / hematology / erythrocyte (rbc) count differential / erythrocyte (rbc) + systemic / hematology / hematocrit (hct) / hematocrit (…
[38] = group: systemic, systemic / urinalysis / volume / volume
[39] = systemic / pathology microscopic / liver / adenoma + systemic / pathology microscopic / liver / adenoma/carcinoma combined + systemic / …
[40] = systemic / pathology microscopic / liver / focal cellular change
[41] = group: developmental, developmental / developmental malformation / bone / [other] + developmental / developmental malformation / general / crown-rump length + …
[42] = group: developmental, developmental / developmental malformation / general / crown-rump length + developmental / developmental malformation / all gross anomalies…
[43] = group: maternal, reproductive / reproductive performance / implantations / implantations + reproductive / reproductive performance / postimplantation loss / …
[44] = group: maternal, systemic / organ weight / kidney / absolute + systemic / organ weight / spleen / absolute
[45] = systemic / in life observation / water consumption / water consumption
[46] = systemic / in life observation / water consumption / water consumption + systemic / in life observation / body weight / body weight + …

`ClCCCCCCCl` [1,6-Dichlorohexane] was tested, and the LEL (rat [1]) was 100 mg/kg/day, the LOAEL (rat [1]) was 100 mg/kg/day and the NEL (rat [1]) was less than 100 mg/kg/day. For the same compound, the NOAEL (rat [1]) was less than 100 mg/kg/day.
With `CCNc1nc(Cl)nc(NC(C)(C)C#N)n1` [Cyanazine] the LOAEL (mouse [2]; [18]) was 75 mg/kg/day, the LEL (mouse [2]; [19]) was 75 mg/kg/day and the NEL (mouse [2]; [19]) was 7.5 mg/kg/day. For the same compound, the NOAEL (mouse [2]; [19]) was 7.5 mg/kg/day, the LEL (rat [3]) was 0.075 mg/kg/day and the LOAEL (rat [3]) was 0.075 mg/kg/day. For the same compound, the NEL (rat [3]) was less than 0.075 mg/kg/day, the NOAEL (rat [3]) was less than 0.075 mg/kg/day and the LOAEL (rat [4]; [18]) was 0.005 mg/kg/day. It also gave an NOAEL (rat [4]; [18]) of less than 0.005 mg/kg/day, an LEL (rat [4]; [20]) of 0.005 mg/kg/day and an NEL (rat [4]; [20]) of less than 0.005 mg/kg/day. The LOAEL (rabbit [5]; group: developmental, developmental / developmental malformation / bone / supernumerary + developmental / developmental malformation / bone / unossified) was 955 mg/kg/day, the NEL (rabbit [5]; [21]) was 286 mg/kg/day and the NOAEL (rabbit [5]; [21]) was 573 mg/kg/day. It also gave an LEL (rabbit [5]; group: developmental, systemic / in life observation / body weight / fetal weight) of 573 mg/kg/day, an LEL (rabbit [5]; [22]) of 96 mg/kg/day and an LOAEL (rabbit [5]; [22]) of 96 mg/kg/day. For the same compound, the NEL (rabbit [5]; [22]) was less than 96 mg/kg/day, the NOAEL (rabbit [5]; [22]) was less than 96 mg/kg/day and the LOAEL (rabbit [6]; group: developmental, developmental / developmental malformation / bone / absent + developmental / developmental malformation / bone / supernumerary) was 2 mg/kg/day. The NOAEL (rabbit [6]; group: developmental, developmental / developmental malformation / bone / absent + developmental / developmental malformation / bone / supernumerary + …) was 1 mg/kg/day, the LEL (rabbit [6]; [23]) was 1 mg/kg/day and the NEL (rabbit [6]; [23]) was less than 1 mg/kg/day. It also gave an LOAEL (rabbit [6]; [24]) of 2 mg/kg/day, an NOAEL (rabbit [6]; [24]) of 1 mg/kg/day and an LEL (rabbit [6]; [25]) of 1 mg/kg/day. The NEL (rabbit [6]; [25]) was less than 1 mg/kg/day, the LEL (dog [7]) was 3.02 mg/kg/day and the LOAEL (dog [7]) was 3.02 mg/kg/day. The NEL (dog [7]) was 0.72 mg/kg/day, the NOAEL (dog [7]) was 0.72 mg/kg/day and the LEL (rat [8]; [26]) was 5 mg/kg/day. The LOAEL (rat [8]; [26]) was 5 mg/kg/day, the NEL (rat [8]; [26]) was less than 5 mg/kg/day and the NOAEL (rat [8]; [26]) was less than 5 mg/kg/day. For the same compound, the LEL (rat [8]; [27]) was 5 mg/kg/day, the LOAEL (rat [8]; [27]) was 5 mg/kg/day and the NEL (rat [8]; [27]) was less than 5 mg/kg/day. It also gave an NOAEL (rat [8]; [27]) of less than 5 mg/kg/day.
`CCOP(=O)(SC(C)CC)N1CCSC1=O` (stereo not given) [Fosthiazate] was tested, and the LEL (rat [9]; [28]) was 0.09 mg/kg/day, the LOAEL (rat [9]; [28]) was 0.09 mg/kg/day and the NEL (rat [9]; [28]) was less than 0.09 mg/kg/day. The NOAEL (rat [9]; [28]) was less than 0.09 mg/kg/day, the LEL (rat [9]; [29]) was 0.08 mg/kg/day and the LOAEL (rat [9]; [29]) was 0.08 mg/kg/day. The NEL (rat [9]; [29]) was less than 0.08 mg/kg/day, the NOAEL (rat [9]; [29]) was less than 0.08 mg/kg/day and the LEL (dog [10]; [30]) was 0.11 mg/kg/day. For the same compound, the LOAEL (dog [10]; [30]) was 0.11 mg/kg/day, the NEL (dog [10]; [31]) was 0.054 mg/kg/day and the NOAEL (dog [10]; [31]) was 0.054 mg/kg/day. For the same compound, the LEL (dog [10]; [32]) was 0.11 mg/kg/day, the LOAEL (dog [10]; [32]) was 0.11 mg/kg/day and the NEL (dog [10]; [32]) was 0.054 mg/kg/day. For the same compound, the NOAEL (dog [10]; [32]) was 0.054 mg/kg/day, the LEL (mouse [11]; [33]) was 10.4 mg/kg/day and the LOAEL (mouse [11]; [33]) was 10.4 mg/kg/day. The NEL (mouse [11]; [34]) was 3.2 mg/kg/day, the NOAEL (mouse [11]; [34]) was 3.2 mg/kg/day and the LEL (dog [12]; [30]) was 0.5 mg/kg/day. It also gave an LOAEL (dog [12]; [30]) of 0.5 mg/kg/day, an NEL (dog [12]; [30]) of 0.1 mg/kg/day and an NOAEL (dog [12]; [30]) of 0.1 mg/kg/day. It also gave an LEL (dog [12]; [35]) of 0.5 mg/kg/day, an LOAEL (dog [12]; [35]) of 0.5 mg/kg/day and an NEL (dog [12]; [36]) of 0.1 mg/kg/day. It also gave an NOAEL (dog [12]; [36]) of 0.1 mg/kg/day, an LEL (rat [13]; [28]) of 0.051 mg/kg/day and an LOAEL (rat [13]; [28]) of 0.38 mg/kg/day. It also gave an NEL (rat [13]; [28]) of less than 0.051 mg/kg/day, an NOAEL (rat [13]; group: cholinesterase, cholinesterase / cholinesterase / cholinesterase / erythrocyte cholinesterase (che) + cholinesterase / cholinesterase / cholinesterase / …) of 0.039 mg/kg/day and an LOAEL (rat [13]; [37]) of 2.45 mg/kg/day. It also gave an NOAEL (rat [13]; [37]) of 0.5 mg/kg/day, an LEL (rat [13]; [38]) of 0.039 mg/kg/day and an NEL (rat [13]; [38]) of less than 0.039 mg/kg/day.
Work on `O=C(O)C(Cl)(Cl)Cl` [Trichloroacetic acid] yielded an LOAEL (mouse [14]; [39]) greater than 572 mg/kg/day, an NOAEL (mouse [14]; [39]) of no less than 572 mg/kg/day and an LEL (mouse [14]; [40]) of 6 mg/kg/day. For the same compound, the NEL (mouse [14]; [40]) was less than 6 mg/kg/day, the LEL (rat [15]) was 119 mg/kg/day and the LOAEL (rat [15]) was greater than 119 mg/kg/day. The NEL (rat [15]) was 31.6 mg/kg/day, the NOAEL (rat [15]) was no less than 119 mg/kg/day and the LOAEL (rat [16]; [41]) was greater than 1800 mg/kg/day. For the same compound, the NOAEL (rat [16]; [41]) was no less than 1800 mg/kg/day, the LEL (rat [16]; [42]) was 330 mg/kg/day and the NEL (rat [16]; [42]) was less than 330 mg/kg/day. For the same compound, the LOAEL (rat [16]; [43]) was greater than 1800 mg/kg/day, the NOAEL (rat [16]; [43]) was no less than 1800 mg/kg/day and the LEL (rat [16]; [44]) was 330 mg/kg/day. It also gave an NEL (rat [16]; [44]) of less than 330 mg/kg/day, an LEL (rat [17]; [45]) of 4.1 mg/kg/day and an NEL (rat [17]; [45]) of less than 4.1 mg/kg/day. For the same compound, the LOAEL (rat [17]; [46]) was greater than 355 mg/kg/day and the NOAEL (rat [17]; [46]) was no less than 355 mg/kg/day.
